For experiment [1], the target named is T1, Isocitrate dehydrogenase [NADP] cytoplasmic (Homo sapiens, UniProt O75874). The experiment can be described thus: Binding affinity to recombinant wildtype IDH1 (unknown origin) expressed in Escherichia coli BL21(DE3) pLysS cells assessed as dissociation constant by NMR analysis.
Target sequence in this assay (O75874 whole entry): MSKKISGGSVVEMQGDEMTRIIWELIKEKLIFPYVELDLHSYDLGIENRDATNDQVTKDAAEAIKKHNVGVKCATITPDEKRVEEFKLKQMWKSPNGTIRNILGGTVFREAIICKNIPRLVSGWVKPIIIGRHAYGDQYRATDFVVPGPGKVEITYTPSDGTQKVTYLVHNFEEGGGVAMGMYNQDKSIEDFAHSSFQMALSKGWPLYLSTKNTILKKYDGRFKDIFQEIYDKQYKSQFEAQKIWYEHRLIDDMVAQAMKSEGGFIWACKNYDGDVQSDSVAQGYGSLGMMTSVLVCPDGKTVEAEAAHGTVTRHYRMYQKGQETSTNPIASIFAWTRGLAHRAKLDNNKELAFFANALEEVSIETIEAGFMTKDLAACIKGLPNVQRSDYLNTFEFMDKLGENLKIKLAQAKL
The target in experiment [2] is T1, Isocitrate dehydrogenase [NADP] cytoplasmic. Nature of the experiment: Inhibition of recombinant wildtype IDH1 (unknown origin) expressed in Escherichia coli BL21(DE3) pLysS cells using DL-isocitrste as substrate assessed as DL-isocitrate conversion to 2OG incubated for 60 mins in presence of NADPH by spectrophotometric analysis.
Target sequence in this assay (O75874 whole entry): as above
The target is the same in experiment [3]. Nature of the experiment: Binding affinity to recombinant IDH1 R132H mutant (unknown origin) expressed in Escherichia coli BL21(DE3) pLysS cells assessed as dissociation constant by ITC assay. On the technique in general: ITC needs no label: the signal is the heat of the interaction.
Target sequence in this assay (O75874 2-414 R132H limits assumed): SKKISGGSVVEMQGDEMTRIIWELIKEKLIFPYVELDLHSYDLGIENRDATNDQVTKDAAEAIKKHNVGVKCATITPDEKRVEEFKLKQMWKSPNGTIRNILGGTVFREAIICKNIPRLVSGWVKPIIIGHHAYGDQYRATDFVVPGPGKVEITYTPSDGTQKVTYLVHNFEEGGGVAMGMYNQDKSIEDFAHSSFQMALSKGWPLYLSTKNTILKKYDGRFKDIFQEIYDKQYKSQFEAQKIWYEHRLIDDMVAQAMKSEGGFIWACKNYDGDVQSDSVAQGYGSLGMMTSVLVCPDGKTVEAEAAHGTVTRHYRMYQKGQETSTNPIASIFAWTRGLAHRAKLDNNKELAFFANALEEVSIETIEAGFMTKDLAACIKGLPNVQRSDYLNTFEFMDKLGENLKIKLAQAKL
Experiment [4] shares this target. Nature of the experiment: Binding affinity to human recombinant IDH1 R132H mutant expressed in Escherichia coli BL21(DE3) pLysS cells assessed as dissociation constant by non-denaturing mass spectroscopic analysis.
Target sequence in this assay (O75874 2-414 R132H limits assumed): as above
The target is the same in experiment [5]. The experiment can be described thus: Inhibition of recombinant IDH1 R132H mutant (unknown origin) expressed in Escherichia coli BL21(DE3) pLysS cells using 2OG as substrate assessed as 2OG conversion to 2HG incubated for 60 mins in presence of NADPH by spectrophotometric analysis.
Target sequence in this assay (O75874 2-414 R132H limits assumed): as above
Experiment [6] shares this target. The experiment can be described thus: Binding affinity to recombinant IDH1 R132H mutant (unknown origin) expressed in Escherichia coli BL21(DE3) pLysS cells assessed as dissociation constant by NMR analysis.
Target sequence in this assay (O75874 2-414 R132H limits assumed): as above
For experiment [7] the target is unchanged. The experiment can be described thus: Binding affinity to recombinant wildtype IDH1 (unknown origin) expressed in Escherichia coli BL21(DE3) pLysS cells assessed as dissociation constant by ITC assay.
Target sequence in this assay (O75874 whole entry): as the sequence (O75874 whole entry) above
For experiment [8] the target is unchanged. Nature of the experiment: Binding affinity to human recombinant IDH1 expressed in Escherichia coli BL21(DE3) pLysS cells assessed as dissociation constant by non-denaturing mass spectroscopic analysis.
Target sequence in this assay (O75874 whole entry): as above

Here are results for one molecule from BindingDB's records for doi:10.1021/acs.jmedchem.3c00203 (University of Oxford, 2023).

What is called Kd is the constant that tells how readily two partners part at equilibrium. For orientation: IC50 means the concentration that gives 50% inhibition. Regarding `CC(=O)N1CCN(Cc2ccc([C@H](C)Nc3nccc(N4C(=O)OC[C@@H]4C(C)C)n3)cc2)CC1` [US8957068, 556], the dissociation constant (Kd) in experiment [1] is 1700 nM; in experiment [3] it was above 400000 nM; in experiment [4] it was 142000 nM; in experiment [6], 1100 nM; in experiment [7], above 400000 nM; in experiment [8], 140000 nM. In addition, the values for the half-inhibitory concentration (IC50) in experiment [2] and in experiment [5] were 341 nM and 8.2 nM, respectively.
